Measurements: patent US20260191835A1, “COMBINATIONS COMPRISING A MENIN-MLL INHIBITOR AND AT LEAST ONE OTHER THERAPEUTIC AGENT” (JANSSEN PHARMACEUTICA NV, priority 2022, published 2026)

Tested on: OCI-AML3 cells
Assay: In vitro proliferation (Cell Titer Glo, 6 days) of Compound 51 in combination with idarubicin or decitabine, OCI-AML3
Format: cell-based, human
Settings: for combination effect on proliferation (cytotoxicity): OCI-AML3 (NPM1c)
Protocol: 3) In Vitro Proliferation—Menin-MLL Inhibitor in Combination with FLT3 Inhibitor (Gilteritinib or Midostaurin), DNA Intercalating Agent (Idarubicin) or Hypomethylating Agent (Decitabine)
The effect of Compound 51 in combination with gilteritinib, midostaurin, idarubicin or decitabine was determined in proliferation assays.
AML cell lines MOLM-13, OCI-AML3 and MV4-11 were purchased from DSMZ. MOLM-13 were grown in RPMI medium supplemented with 10% Fetal Bovine Serum (FBS) and 1% penicillin/streptomycin. MV4-11 cells were grown in IMDM medium supplemented with 10% FBS and 1% penicillin/streptomycin. OCI-AML3 cells were cultured in 80-90% alpha-MEM (with or without ribo- and deoxyribonucleosides)+10-20% FBS. All cell lines were cultured at 37° C. in 5% CO2 atmosphere.
AML cell lines (10-20×10^3 cells/well) were seeded in 96-well plates and grown for 6 days in serum (10%)-containing medium in the presence or absence of inhibitors at the indicated concentrations. Proliferation was analyzed by means of a Cell Titer Glo assay using the […] (Promega, Madison, WI, USA), according to the manufacturer's instructions. Data are mean with standard deviation from two to four independent experiments in technical triplicates.
R-based Biochemically Intuitive Generalized Loewe (BIGL) model implemented with a highest single agent (HSA) null model. Specifically, the BIGL methodology was applied to calculate drug-drug interactions (Van der Borght, K., Tourny, A., Bagdziunas, R. et al. BIGL: Biochemically Intuitive Generalized Loewe null model for prediction of the expected combined effect compatible with partial agonism and antagonism. Sci Rep 7, 17935 (2017); Thas, O., Tourny, A., Verbist, B., Hawinkel, S., Nazarov, M., Mutambanengwe, K., & Bijnens, L. Statistical detection of synergy: New methods and a comparative study. Pharmaceutical Statistics (2021)).
Synergy matrix results of the BIGL analysis of the cell line data with HSA as mean model calculated on the basis of the cellular metabolic activity using Cell Titer-Glo assay. Bootstrap confidence intervals are indicated. Effect sizes and their confidence intervals are shown. […] No significant average effect if zero is included in the interval.

Which results are given for `CC(=O)N1CCC(CN2CC[C@@H](Cc3cn(-c4ccc(F)cc4C(=O)N(C)C(C)C)c4cncc(C)c34)C2)CC1` [Compound 51]?
Effect size (BIGL, HSA null model), OCI-AML3 Cell Proliferation (Compound 51 0.001 μm + Decitabine 0.0015 μM): −0.02; Effect size (BIGL, HSA null model), OCI-AML3 Cell Proliferation (Compound 51 0.001 μm + Decitabine 0.015 μM): −0.06; Effect size (BIGL, HSA null model), OCI-AML3 Cell Proliferation (Compound 51 0.001 μm + Decitabine 0.35 μM): −0.04; Effect size (BIGL, HSA null model), OCI-AML3 Cell Proliferation (Compound 51 0.001 μm + Decitabine 3 μM): 0.01; Effect size (BIGL, HSA null model), OCI-AML3 Cell Proliferation (Compound 51 0.001 μm + Decitabine 3.5 μM): −0.02; Effect size (BIGL, HSA null model), OCI-AML3 Cell Proliferation (Compound 51 0.001 μm + Idarubicin 0.0005 μM): −0.02; Effect size (BIGL, HSA null model), OCI-AML3 Cell Proliferation (Compound 51 0.001 μm + Idarubicin 0.00625 μM): 0; Effect size (BIGL, HSA null model), OCI-AML3 Cell Proliferation (Compound 51 0.001 μm + Idarubicin 0.0125 μM): 0.02; Effect size (BIGL, HSA null model), OCI-AML3 Cell Proliferation (Compound 51 0.001 μm + Idarubicin 0.025 μM): 0; Effect size (BIGL, HSA null model), OCI-AML3 Cell Proliferation (Compound 51 0.001 μm + Idarubicin 0.05 μM): −0.01; Effect size (BIGL, HSA null model), OCI-AML3 Cell Proliferation (Compound 51 0.001 μm + Idarubicin 0.5 μM): −0.01; Effect size (BIGL, HSA null model), OCI-AML3 Cell Proliferation (Compound 51 0.01 μm + Decitabine 0.0015 μM): −0.01; Effect size (BIGL, HSA null model), OCI-AML3 Cell Proliferation (Compound 51 0.01 μm + Decitabine 0.015 μM): −0.1; Effect size (BIGL, HSA null model), OCI-AML3 Cell Proliferation (Compound 51 0.01 μm + Decitabine 0.35 μM): −0.07; Effect size (BIGL, HSA null model), OCI-AML3 Cell Proliferation (Compound 51 0.01 μm + Decitabine 3 μM): 0; Effect size (BIGL, HSA null model), OCI-AML3 Cell Proliferation (Compound 51 0.01 μm + Decitabine 3.5 μM): −0.02; Effect size (BIGL, HSA null model), OCI-AML3 Cell Proliferation (Compound 51 0.01 μm + Idarubicin 0.0005 μM): 0.05; Effect size (BIGL, HSA null model), OCI-AML3 Cell Proliferation (Compound 51 0.01 μm + Idarubicin 0.00625 μM): −0.02; Effect size (BIGL, HSA null model), OCI-AML3 Cell Proliferation (Compound 51 0.01 μm + Idarubicin 0.0125 μM): 0.01; Effect size (BIGL, HSA null model), OCI-AML3 Cell Proliferation (Compound 51 0.01 μm + Idarubicin 0.025 μM): 0; Effect size (BIGL, HSA null model), OCI-AML3 Cell Proliferation (Compound 51 0.01 μm + Idarubicin 0.05 μM): −0.01; Effect size (BIGL, HSA null model), OCI-AML3 Cell Proliferation (Compound 51 0.01 μm + Idarubicin 0.5 μM): −0.01; Effect size (BIGL, HSA null model), OCI-AML3 Cell Proliferation (Compound 51 0.05 μm + Decitabine 0.0015 μM): 0; Effect size (BIGL, HSA null model), OCI-AML3 Cell Proliferation (Compound 51 0.05 μm + Decitabine 0.015 μM): 0; Effect size (BIGL, HSA null model), OCI-AML3 Cell Proliferation (Compound 51 0.05 μm + Decitabine 0.35 μM): −0.1; Effect size (BIGL, HSA null model), OCI-AML3 Cell Proliferation (Compound 51 0.05 μm + Decitabine 3 μM): 0; Effect size (BIGL, HSA null model), OCI-AML3 Cell Proliferation (Compound 51 0.05 μm + Decitabine 3.5 μM): −0.03; Effect size (BIGL, HSA null model), OCI-AML3 Cell Proliferation (Compound 51 0.05 μm + Idarubicin 0.0005 μM): 0.04; Effect size (BIGL, HSA null model), OCI-AML3 Cell Proliferation (Compound 51 0.05 μm + Idarubicin 0.00625 μM): −0.04; Effect size (BIGL, HSA null model), OCI-AML3 Cell Proliferation (Compound 51 0.05 μm + Idarubicin 0.0125 μM): 0; Effect size (BIGL, HSA null model), OCI-AML3 Cell Proliferation (Compound 51 0.05 μm + Idarubicin 0.025 μM): −0.01; Effect size (BIGL, HSA null model), OCI-AML3 Cell Proliferation (Compound 51 0.05 μm + Idarubicin 0.05 μM): −0.01; Effect size (BIGL, HSA null model), OCI-AML3 Cell Proliferation (Compound 51 0.05 μm + Idarubicin 0.5 μM): −0.01; Effect size (BIGL, HSA null model), OCI-AML3 Cell Proliferation (Compound 51 0.1 μm + Decitabine 0.0015 μM): 0.01; Effect size (BIGL, HSA null model), OCI-AML3 Cell Proliferation (Compound 51 0.1 μm + Decitabine 0.015 μM): 0.08; Effect size (BIGL, HSA null model), OCI-AML3 Cell Proliferation (Compound 51 0.1 μm + Decitabine 0.35 μM): −0.07; Effect size (BIGL, HSA null model), OCI-AML3 Cell Proliferation (Compound 51 0.1 μm + Decitabine 3 μM): 0; Effect size (BIGL, HSA null model), OCI-AML3 Cell Proliferation (Compound 51 0.1 μm + Decitabine 3.5 μM): −0.02; Effect size (BIGL, HSA null model), OCI-AML3 Cell Proliferation (Compound 51 0.1 μm + Idarubicin 0.0005 μM): 0.01; Effect size (BIGL, HSA null model), OCI-AML3 Cell Proliferation (Compound 51 0.1 μm + Idarubicin 0.00625 μM): −0.05; Effect size (BIGL, HSA null model), OCI-AML3 Cell Proliferation (Compound 51 0.1 μm + Idarubicin 0.0125 μM): 0; Effect size (BIGL, HSA null model), OCI-AML3 Cell Proliferation (Compound 51 0.1 μm + Idarubicin 0.025 μM): 0; Effect size (BIGL, HSA null model), OCI-AML3 Cell Proliferation (Compound 51 0.1 μm + Idarubicin 0.05 μM): −0.01; Effect size (BIGL, HSA null model), OCI-AML3 Cell Proliferation (Compound 51 0.1 μm + Idarubicin 0.5 μM): −0.01; Effect size (BIGL, HSA null model), OCI-AML3 Cell Proliferation (Compound 51 1 μm + Decitabine 0.0015 μM): 0.02; Effect size (BIGL, HSA null model), OCI-AML3 Cell Proliferation (Compound 51 1 μm + Decitabine 0.015 μM): 0.13; Effect size (BIGL, HSA null model), OCI-AML3 Cell Proliferation (Compound 51 1 μm + Decitabine 0.35 μM): 0.01; Effect size (BIGL, HSA null model), OCI-AML3 Cell Proliferation (Compound 51 1 μm + Decitabine 3 μM): 0; Effect size (BIGL, HSA null model), OCI-AML3 Cell Proliferation (Compound 51 1 μm + Decitabine 3.5 μM): −0.02; Effect size (BIGL, HSA null model), OCI-AML3 Cell Proliferation (Compound 51 1 μm + Idarubicin 0.0005 μM): −0.03; Effect size (BIGL, HSA null model), OCI-AML3 Cell Proliferation (Compound 51 1 μm + Idarubicin 0.00625 μM): −0.06; Effect size (BIGL, HSA null model), OCI-AML3 Cell Proliferation (Compound 51 1 μm + Idarubicin 0.0125 μM): 0; Effect size (BIGL, HSA null model), OCI-AML3 Cell Proliferation (Compound 51 1 μm + Idarubicin 0.025 μM): −0.01; Effect size (BIGL, HSA null model), OCI-AML3 Cell Proliferation (Compound 51 1 μm + Idarubicin 0.05 μM): −0.01; Effect size (BIGL, HSA null model), OCI-AML3 Cell Proliferation (Compound 51 1 μm + Idarubicin 0.5 μM): −0.01; Effect size (BIGL, HSA null model), OCI-AML3 Cell Proliferation (Compound 51 10 μm + Decitabine 0.0015 μM): 0.01; Effect size (BIGL, HSA null model), OCI-AML3 Cell Proliferation (Compound 51 10 μm + Decitabine 0.015 μM): 0.1; Effect size (BIGL, HSA null model), OCI-AML3 Cell Proliferation (Compound 51 10 μm + Decitabine 0.35 μM): −0.02; Effect size (BIGL, HSA null model), OCI-AML3 Cell Proliferation (Compound 51 10 μm + Decitabine 3 μM): 0.01; Effect size (BIGL, HSA null model), OCI-AML3 Cell Proliferation (Compound 51 10 μm + Decitabine 3.5 μM): −0.01; Effect size (BIGL, HSA null model), OCI-AML3 Cell Proliferation (Compound 51 10 μm + Idarubicin 0.0005 μM): 0.04; Effect size (BIGL, HSA null model), OCI-AML3 Cell Proliferation (Compound 51 10 μm + Idarubicin 0.00625 μM): −0.06; Effect size (BIGL, HSA null model), OCI-AML3 Cell Proliferation (Compound 51 10 μm + Idarubicin 0.0125 μM): 0; Effect size (BIGL, HSA null model), OCI-AML3 Cell Proliferation (Compound 51 10 μm + Idarubicin 0.025 μM): −0.01; Effect size (BIGL, HSA null model), OCI-AML3 Cell Proliferation (Compound 51 10 μm + Idarubicin 0.05 μM): −0.01; Effect size (BIGL, HSA null model), OCI-AML3 Cell Proliferation (Compound 51 10 μm + Idarubicin 0.5 μM): −0.01; combination effect on proliferation (cytotoxicity) (in combination with decitabine, 6-day CellTiter-Glo matrix): not antagonistically cytotoxic; combination effect on proliferation (cytotoxicity) (in combination with idarubicin, 6-day Cell Titer-Glo matrix): not antagonistically cytotoxic
